From PMC6154642 (Molecules : A Journal of Synthetic Chemistry and Natural …, 2017) come the findings set out here.

Series [1] concerns human colorectal carcinoma SW620 cells. Briefly: MTT assay, growth inhibition of SW620 cells. In kind it is cell-based. The protocol: (§1) Human cancer cell lines, human lung adenocarcinoma A549 cells, human hepatocarcinoma SMMC7721 cells, human colorectal carcinoma SW620 cells and HaCaT cells were purchased from American Type Culture Collection (ATCC, Manassas, VA, USA). All cell lines were maintained in Dulbecco’s Modified Eagle Medium (DMEM) media supplemented with fetal bovine serum (10%), penicillin (100 units/mL), and streptomycin (50 units/mL) at 37 °C in a CO2 incubator (95% relative humidity, 5% CO2).
(§2) Cell viability was confirmed by measuring the ability of cells to transform 3-(4,5-dimethylthia-zol-2-yl)-2,5-diphenyltetrazolium bromide (MTT) to a purple formazan dye. Cells were seeded in 96-well tissue culture plates (3 × 10^3 cells per well) for 24 h. The cells were then incubated with the tested compounds at different concentrations for 72 h. After incubation, 20 µL per well of MTT solution (5 mg/mL in phosphate buffered saline, PBS) was added, followed by incubation for a further 5 h. The medium was aspirated and replaced with 150 µL/well of DMSO to dissolve the formazan salt formed. The colour intensity, which reflects the cell growth condition, was measured at 570 nm using a microplate spectrophotometer (SpectroAmaxTM250, BioTek Instruments, Inc., Winooski, VT, USA).
On the technique in general: Tetrazolium assays rely on reduction of a dye to a coloured formazan, in cell work by metabolically active cells.

Series [2] deals with human lung adenocarcinoma A549 cells. Briefly: MTT assay, growth inhibition of A549 cells. In kind it is cell-based. Here is the method:
as §1, §2

A further series has as its system HaCaT cells. Briefly: MTT assay, normal HaCaT cells. The note with it: 72 h; for IC50: normal cells. In kind it is cell-based, human. The protocol: as §1, §2
For series [3], the system named is human hepatocarcinoma SMMC7721 cells. Briefly: MTT assay, growth inhibition of SMMC7721 cells. In kind it is cell-based. Here is the method: as §1, §2
Series [4] relates to bcl-2 G-quadruplex DNA (bcl-2 G4 DNA) (DNA, G4) CGGGCGCGGGAGGAAGGGGGCGGGAGC
Briefly: UV-vis absorption titration. The note with it: K+ (KCl, concentration not given); Tris-HCl pH 7.2; fixed 20 μM compound (60 μM in Figure 3 legend); intrinsic binding constant.

Another series has as its system A549 cells. Briefly: Flow cytometric analysis of cell cycle arrest (PI staining). In kind it is cell-based, human. The note with it: 20 μM, 24 h, versus control (55.75%). Here is the method:
Cells were seeded in six-well tissue culture plates (1 × 10^5 cells per well), and the cell cycle arrest was analyzed by flow cytometry as previously described. […] The fixed cells were washed with PBS and stained with propidium iodide (PI) for 15 min in the dark, then the cell cycle arrest was analyzed with an Epics XL-MCL flow cytometer (Beckman Coulter, Miami, FL, USA).

The subject of series [5] is 5'-FAM-bcl-2-TAMRA-3' (DNA, G4) CGGGCGCGGGAGGAAGGGGGCGGGAGC
Briefly: FRET melting. The note with it: Tris-HCl buffer; 6.0 μM compound (2.4 °C at 3.0 μM); 1 μM DNA (0.2 μM in Figure 4 legend).

Series [6] has as its system bcl-2 G4 DNA. Briefly: FRET melting assay. In kind it is binding. The protocol: The fluorescent labeled oligonucleotide, bcl-2 G-quadruplex DNA (5′-FAM-[…]-TAMRA-3′, FAM: carboxyfluorescein, TAMRA: 6-carboxy tetramethylrhodamine) used as the FRET probe was diluted in TrisHCl buffer and then annealed by being heated to 90 °C for 5 min, followed by slowly cooling to room temperature. Ds26 duplex DNA ([…]) was competitive binders to evaluate the selective binding ability of 1 with bcl-2 G4 DNA. Fluorescence melting curves were determined with a Bio-RadiQ5 realtime PCR detection system (Bio-Rad, Berkeley, CA, USA), by using a total reaction volume of […], with labeled oligonucleotide (1 μM) and different concentrations of complex in Tris-HCl buffer. A constant temperature was maintained for 30 s prior to each reading to ensure a stable value. Final analysis of the data was carried out by using Origin7.5 (Origin Lab, Northampton, MA, USA).

In series [7] the test system is bcl-2 G-quadruplex DNA (bcl-2 G4 DNA) (DNA, G4) CGGGCGCGGGAGGAAGGGGGCGGGAGC
Briefly: ethidium bromide displacement fluorescence. The note with it: K+ (KCl, concentration not given); Tris-HCl KCl pH 7.2; EB 16 μM, DNA 2 μM; I/I0 0.83 at 20.89 μM compound.

The subject of series [8] is bcl-2 G4 DNA. Nature of the series: Fluorescence quenching of EB + bcl-2 G4 DNA system. In kind it is binding. The note with it: [1] = 20.89 μM, [EB] = 16 μM, [DNA] = 2 μM, excitation 350 nm, Tris-HCl KCl buffer pH 7.2. Here is the method: (§3) All reagents were purchased from commercial suppliers and used without further purification. Solvents were dried and purified by conventional methods prior to use. Distilled water was used in all experiments. Bcl-2 G-quadruplex DNA (5′-[…]-3′) and 5′-FAM-bcl-2-TAMRA-3′ were purchased from Sangon Biotech Co., Ltd. (Shanghai, China) Bcl-2 G-quadruplex DNA formed a G-quadruplex conformation as literature by renaturation for 24 h at 4 °C, after denaturation for 5 min at 90 °C [29]. All aqueous solutions were prepared with doubly distilled water. The Tris-HCl buffer consisting of Tris and KCl, and the pH value was adjusted to 7.2 by HCl solution, which was applied to UV titration, Fluorescence emission titrations.
Fluorescence spectroscopy measurements were performed on a RF-5301 fluorescence spectrophotometer using a 1 cm path length quartz cell. Fluorescence quenching of the EB + bcl-2 G4 DNA system can be used for a compound having an affinity to DNA in spite of its binding mode, and only measures the ability of the compound to affect the EB fluorescence intensities in the EB + bcl-2 G4 DNA system. The titration processes were repeated until there was no apparent change in the spectra for at least three titrations, indicating the achievement of the binding saturation.

For a further series, the system named is bcl-2 G-quadruplex DNA. Briefly: Electronic absorption titration with bcl-2 G-quadruplex DNA. In kind it is binding. Here is the method:
as §3
Electronic absorption spectra were recorded on a Shimadzu UV-2550 spectrophotometer using 1 cm path length quartz cuvettes (3 mL). The absorption titration of the target complex in Tris-HCl buffer was performed by using a fixed complex concentration to which increments of the DNA stock solution were added. The concentration of the complex solution was 20 μM and bcl-2 G4 DNA was added by degrees. Complex-DNA solutions were allowed to incubate for 3 min before the absorption spectra were recorded.

Where two headings read alike, the source gives them in different places.

For orientation: IC50 means the concentration that gives 50% inhibition. Regarding `Clc1cccc(-c2nc3c4cccnc4c4ncccc4c3[nH]2)c1` [Compound 3], the IC50 amounted to 16 ± 0.29 µM in [1] (Homo sapiens, SW-620, 72 h); 14.3 ± 0.21 µM in series [2] (Homo sapiens, A549, 72 h); 13.4 ± 0.56 µM with HaCaT cells (Homo sapiens, HaCaT); 12.6 ± 0.35 µM in [3] (Homo sapiens, SMMC-7721, 72 h).
Consider `O=[N+]([O-])c1cccc(-c2nc3c4cccnc4c4ncccc4c3[nH]2)c1` [Compound 1], for which the Kb in [4] is ~ 8.7 × 10^7 M^-1. For the same compound, in the series with A549 cells, the “ratio of G1-phase higher than that of the control” value is listed as “about 12%”. Also, the IC50 in [1] (Homo sapiens, SW-620, 72 h) turned out to be 26.5 ± 0.59 µM; in series [2] (Homo sapiens, A549, 72 h) it was 15 ± 1.01 µM; in the series with HaCaT cells (Homo sapiens, HaCaT), 27.3 ± 1.49 µM; in series [3] (Homo sapiens, SMMC-7721, 72 h), 17.5 ± 1.84 µM. In series [5], the ΔTm is ~ 11 °C. Besides, the “ΔTm of bcl-2 G4 DNA” value in the series on bcl-2 G4 DNA [6] (3.0 μM compound) was “about 2.4 °C”; in the series with bcl-2 G4 DNA [6] (6.0 μM compound), “about 11 °C”. Moreover, the binding result in series [7] is given as “weak”. Moreover, the “relative fluorescence intensity (I/I0) of EB-DNA” value with bcl-2 G4 DNA [8] is recorded as “about 0.83”. Moreover, the “toxicity in normal cells” value in the series on HaCaT cells was “low toxicity in normal cells”. For the same compound, the “hyperchromism at the IL absorption band” value in the series with bcl-2 G-quadruplex DNA (Tris-HCl buffer pH 7.2, about 273 nm, on addition of bcl-2 G-quadruplex DNA) is “about 14.1%”. In addition, in the series with bcl-2 G-quadruplex DNA (Tris-HCl buffer pH 7.2, on addition of bcl-2 G-quadruplex DNA), the “bathochromic shift Δλ at the IL absorption band” value is listed as 2.1 nm.
In the case of `FC(F)(F)c1cccc(-c2nc3c4cccnc4c4ncccc4c3[nH]2)c1` [Compound 2], the IC50 in [1] (Homo sapiens, SW-620, 72 h) is 27.2 ± 0.53 µM; in series [2] (Homo sapiens, A549, 72 h), 13.8 ± 0.53 µM; in the series on HaCaT cells (Homo sapiens, HaCaT), 17.5 ± 0.58 µM; in series [3] (Homo sapiens, SMMC-7721, 72 h) it was 12.9 ± 0.51 µM.
Take `N.N.[Cl][Pt][Cl]` [cis-platin, reference compound]: the IC50 in series [1] (72 h) came to 6.29 ± 0.17 µM; in series [2] (72 h) it was 32 ± 4.66 µM; in the series on HaCaT cells, 18.5 ± 1.64 µM; in series [3] (72 h, read-out: IC50 (μM) SMMC-7721), 11.7 ± 1.45 µM.
Take `Oc1cccc(-c2nc3c4cccnc4c4ncccc4c3[nH]2)c1` [Compound 4]: the IC50 was found to be 16.5 ± 0.28 µM in series [1] (Homo sapiens, SW-620, 72 h); 3 ± 0.14 µM in series [2] (Homo sapiens, A549, 72 h); 13.9 ± 0.64 µM in the series with HaCaT cells (Homo sapiens, HaCaT); 24.2 ± 2.28 µM in series [3] (Homo sapiens, SMMC-7721, 72 h).
